Assay: Levels of PCB 95 and its hydroxylated metabolites in adipose, blood, brain and liver 24 h after a single oral dose (GC-MS/MS)
Assay type: in vivo, mice
Settings: female, C57BL/6 (wild-type), mouse, adipose, po, 1 mg/kg, FWT, female wildtype mice, single oral PCB 95 1.0 mg/kg, mean ± SD, read-out: Levels in adipose
Experimental: Adult male and female wild-type (WT) C57BL/6 mice, KO, and KI mice (4 months old) were exposed to racemic PCB 95. Mice were randomly assigned to exposure groups and received a single oral dose of PCB 95 (1.0 mg/kg) in stripped corn oil (10 mL/kg; lot# A0395699; cat# 801-03-7; Fisher Scientific) via gavage (5–7 mice per group). Control animals received corn oil alone (1–3 mice per group) to assess the potential background contamination with PCB 95. Animals were euthanized 24 h after PCB 95 exposure. Blood was collected from the heart and placed in pre-weighed glass vials with 80 μL of ethylenediaminetetraacetic acid solution (EDTA, 7.5%, w/w). The amount of blood in each vial was determined by weight prior to sample extraction. Adipose, brain, and liver tissues were excised from each animal and individually wrapped in aluminum foil. Samples were stored at −80 °C in separate plastic bags and shipped on dry ice to the University of Iowa for analysis.
PCB 95 and its hydroxylated metabolites were extracted from adipose (0.06 ± 0.01 g), brain (0.19 ± 0.03 g) and liver tissues (0.49 ± 0.07 g) by pressurized liquid extraction (PLE) with a Dionex ASE200 system (Dionex, Sunnyvale, CA, USA).[45] Tissues were homogenized with 2 g of pre-cleaned diatomaceous earth (Thermo Fisher Scientific, Pittsburgh, PA, USA) and placed in extraction cells loaded with 10 g of pre-extracted Florisil (60–100 mesh, Fisher Scientific, Pittsburgh, PA, USA). Tissue samples were then spiked with recovery standards [50 ng of PCB 117 in 50 μL of isooctane and 50 ng of 4′-159 (2′,3,3′,5,5′,6′-hexachlorobiphenyl-4-ol) in 50 μL of methanol]. For ongoing precision recovery (OPR) samples; recovery standard, internal standard, PCB 95, and its metabolites (50 ng each) were spiked to the method blank (DE only) and tissues from control animals. Cells were extracted with hexane–dichloromethane–methanol (48:43:9, v/v/v) at 100 °C and 1500 psi (10 MPa), with preheat equilibration for 6 min, 60% of cell flush volume, and 1 static cycle of 5 min. The extracts were concentrated to approximately 1 mL with a TurboVap II (Biotage, LLC, NC, USA) and transferred to new glass tubes with 1 mL of hexane. The solvent was evaporated to near dryness under a gentle stream of nitrogen, and extracts were redissolved in 1 mL of hexane.
PCB 95 and its hydroxylated metabolites were extracted from whole blood (0.45 ± 0.13 g) using a published liquid–liquid extraction procedure.[29] Briefly, blood samples were thawed, and 3 mL of aqueous 1% KCl solution was added to each sample. Recovery standards (50 ng of PCB 117 in 50 μL of isooctane and 50 ng of 4′-159 in 50 μL of methanol) were spiked to all samples, including OPR samples, before extraction. Subsequently, 1 mL of 6 M HCl, 5 mL of 2-propanol, and 5 mL of 1:1 hexane–MTBE mixture (v/v) were added to the blood samples. The samples were inverted for 5 min and centrifuged at 1690g for 5 min to facilitate the phase separation. Next, the organic phases were transferred to new glass tubes, and the aqueous phases were re-extracted with 3 mL of hexane. Next, three mL of aqueous 1% KCl were added to the combined organic extracts, and samples were inverted and centrifuged as described above. The organic phase was transferred to a new tube, and the aqueous phase was re-extracted with 3 mL of hexane. The combined organic extracts were evaporated to near dryness using a Savant SpeedVac SPD210 (Thermo Scientific, Waltham, MA, US), and each sample was reconstituted with 0.5 mL of hexane.
Five drops of methanol and 0.5 mL of diazomethane (CH2N2; about 0.1 mmol) in diethyl ether were added to the tissue or blood extracts to derivatize the OH-PCBs.[45] Diazomethane rapidly converts the phenolic hydroxyl groups of OH-PCBs to methoxy groups (i.e., −OH → −OCH3). All samples were stored at 4 °C for approximately 16 h. Excess diazomethane evaporated under a gentle stream of nitrogen in a fume hood, followed by adding 0.5 mL of hexane. […]

| Compound | concentration at 24 h [ng/g] |
| --- | --- |
| Oc1c(O)c(Cl)c(-c2cc(Cl)ccc2Cl)c(Cl)c1Cl [4,5-95, 2,2',3,5',6-pentachlorobiphenyl-4,5-diol] | 0.9 ± 0.2 |
| Oc1c(Cl)cc(Cl)c(-c2cc(Cl)ccc2Cl)c1Cl [3-103, 2,2',4,5',6-pentachlorobiphenyl-3-ol] | 0.7 |

Same assay, conditions: female, C57BL/6 (wild-type), mouse, liver, po, 1 mg/kg, FWT, female wildtype mice, single oral PCB 95 1.0 mg/kg, mean ± SD, read-out: Levels in liver

| Compound | concentration at 24 h [ng/g] |
| --- | --- |
| Oc1c(O)c(Cl)c(-c2cc(Cl)ccc2Cl)c(Cl)c1Cl [4,5-95, 2,2',3,5',6-pentachlorobiphenyl-4,5-diol] | 2.2 ± 0.9 |
| Oc1c(Cl)cc(Cl)c(-c2cc(Cl)ccc2Cl)c1Cl [3-103, 2,2',4,5',6-pentachlorobiphenyl-3-ol] | 1.2 ± 0.4 |

Same assay, conditions: female, C57BL/6 (wild-type), mouse, whole blood, po, 1 mg/kg, FWT, female wildtype mice, single oral PCB 95 1.0 mg/kg, mean ± SD, read-out: Levels in blood

| Compound | concentration at 24 h [ng/g] |
| --- | --- |
| Oc1c(O)c(Cl)c(-c2cc(Cl)ccc2Cl)c(Cl)c1Cl [4,5-95, 2,2',3,5',6-pentachlorobiphenyl-4,5-diol] | 5.2 ± 1.9 |
| Oc1c(Cl)cc(Cl)c(-c2cc(Cl)ccc2Cl)c1Cl [3-103, 2,2',4,5',6-pentachlorobiphenyl-3-ol] | 1 ± 0.5 |

Same assay, conditions: female, CYP2A6-humanized (KI), mouse, adipose, po, 1 mg/kg, FKI, female CYP2A6-humanized mice, single oral PCB 95 1.0 mg/kg, mean ± SD, read-out: Levels in adipose

| Compound | concentration at 24 h [ng/g] |
| --- | --- |
| Oc1c(O)c(Cl)c(-c2cc(Cl)ccc2Cl)c(Cl)c1Cl [4,5-95, 2,2',3,5',6-pentachlorobiphenyl-4,5-diol] | 1 ± 0.6 |

Same assay, conditions: female, CYP2A6-humanized (KI), mouse, liver, po, 1 mg/kg, FKI, female CYP2A6-humanized mice, single oral PCB 95 1.0 mg/kg, mean ± SD, read-out: Levels in liver

| Compound | concentration at 24 h [ng/g] |
| --- | --- |
| Oc1c(O)c(Cl)c(-c2cc(Cl)ccc2Cl)c(Cl)c1Cl [4,5-95, 2,2',3,5',6-pentachlorobiphenyl-4,5-diol] | 1.7 ± 0.3 |
| Oc1c(Cl)cc(Cl)c(-c2cc(Cl)ccc2Cl)c1Cl [3-103, 2,2',4,5',6-pentachlorobiphenyl-3-ol] | 1 ± 0.4 |

Same assay, conditions: female, CYP2A6-humanized (KI), mouse, whole blood, po, 1 mg/kg, FKI, female CYP2A6-humanized mice, single oral PCB 95 1.0 mg/kg, mean ± SD, read-out: Levels in blood

| Compound | concentration at 24 h [ng/g] |
| --- | --- |
| Oc1c(O)c(Cl)c(-c2cc(Cl)ccc2Cl)c(Cl)c1Cl [4,5-95, 2,2',3,5',6-pentachlorobiphenyl-4,5-diol] | 5.2 ± 4.8 |
| Oc1c(Cl)cc(Cl)c(-c2cc(Cl)ccc2Cl)c1Cl [3-103, 2,2',4,5',6-pentachlorobiphenyl-3-ol] | 1.1 ± 1.2 |

Same assay, conditions: female, Cyp2abfgs-null (KO), mouse, adipose, po, 1 mg/kg, FKO, female Cyp2abfgs-null mice, single oral PCB 95 1.0 mg/kg, mean ± SD, read-out: Levels in adipose

| Compound | concentration at 24 h [ng/g] |
| --- | --- |
| Oc1c(O)c(Cl)c(-c2cc(Cl)ccc2Cl)c(Cl)c1Cl [4,5-95, 2,2',3,5',6-pentachlorobiphenyl-4,5-diol] | 1.6 |

Same assay, conditions: female, Cyp2abfgs-null (KO), mouse, liver, po, 1 mg/kg, FKO, female Cyp2abfgs-null mice, single oral PCB 95 1.0 mg/kg, mean ± SD, read-out: Levels in liver

| Compound | concentration at 24 h [ng/g] |
| --- | --- |
| Oc1c(O)c(Cl)c(-c2cc(Cl)ccc2Cl)c(Cl)c1Cl [4,5-95, 2,2',3,5',6-pentachlorobiphenyl-4,5-diol] | 1.2 ± 0.7 |
| Oc1c(Cl)cc(Cl)c(-c2cc(Cl)ccc2Cl)c1Cl [3-103, 2,2',4,5',6-pentachlorobiphenyl-3-ol] | 1.8 ± 0.4 |

Same assay, conditions: female, Cyp2abfgs-null (KO), mouse, whole blood, po, 1 mg/kg, FKO, female Cyp2abfgs-null mice, single oral PCB 95 1.0 mg/kg, mean ± SD, read-out: Levels in blood

| Compound | concentration at 24 h [ng/g] |
| --- | --- |
| Oc1c(O)c(Cl)c(-c2cc(Cl)ccc2Cl)c(Cl)c1Cl [4,5-95, 2,2',3,5',6-pentachlorobiphenyl-4,5-diol] | 1.4 ± 0.7 |
| Oc1c(Cl)cc(Cl)c(-c2cc(Cl)ccc2Cl)c1Cl [3-103, 2,2',4,5',6-pentachlorobiphenyl-3-ol] | 0.8 ± 0.3 |

Same assay, conditions: male, C57BL/6 (wild-type), mouse, adipose, po, 1 mg/kg, MWT, male wildtype mice, single oral PCB 95 1.0 mg/kg, mean ± SD, read-out: Levels in adipose

| Compound | concentration at 24 h [ng/g] |
| --- | --- |
| Oc1c(O)c(Cl)c(-c2cc(Cl)ccc2Cl)c(Cl)c1Cl [4,5-95, 2,2',3,5',6-pentachlorobiphenyl-4,5-diol] | 0.9 ± 0.2 |

Same assay, conditions: male, C57BL/6 (wild-type), mouse, liver, po, 1 mg/kg, MWT, male wildtype mice, single oral PCB 95 1.0 mg/kg, mean ± SD, read-out: Levels in liver

| Compound | concentration at 24 h [ng/g] |
| --- | --- |
| Oc1c(O)c(Cl)c(-c2cc(Cl)ccc2Cl)c(Cl)c1Cl [4,5-95, 2,2',3,5',6-pentachlorobiphenyl-4,5-diol] | 3.4 ± 1.2 |
| Oc1c(Cl)cc(Cl)c(-c2cc(Cl)ccc2Cl)c1Cl [3-103, 2,2',4,5',6-pentachlorobiphenyl-3-ol] | 0.7 ± 0.3 |

Same assay, conditions: male, C57BL/6 (wild-type), mouse, whole blood, po, 1 mg/kg, MWT, male wildtype mice, single oral PCB 95 1.0 mg/kg, mean ± SD, read-out: Levels in blood

| Compound | concentration at 24 h [ng/g] |
| --- | --- |
| Oc1c(O)c(Cl)c(-c2cc(Cl)ccc2Cl)c(Cl)c1Cl [4,5-95, 2,2',3,5',6-pentachlorobiphenyl-4,5-diol] | 9.1 ± 2.6 |
| Oc1c(Cl)cc(Cl)c(-c2cc(Cl)ccc2Cl)c1Cl [3-103, 2,2',4,5',6-pentachlorobiphenyl-3-ol] | 0.6 ± 0.2 |

Same assay, conditions: male, CYP2A6-humanized (KI), mouse, adipose, po, 1 mg/kg, MKI, male CYP2A6-humanized mice, single oral PCB 95 1.0 mg/kg, mean ± SD, read-out: Levels in adipose

| Compound | concentration at 24 h [ng/g] |
| --- | --- |
| Oc1c(O)c(Cl)c(-c2cc(Cl)ccc2Cl)c(Cl)c1Cl [4,5-95, 2,2',3,5',6-pentachlorobiphenyl-4,5-diol] | 0.7 ± 0.2 |

Same assay, conditions: male, CYP2A6-humanized (KI), mouse, liver, po, 1 mg/kg, MKI, male CYP2A6-humanized mice, single oral PCB 95 1.0 mg/kg, mean ± SD, read-out: Levels in liver

| Compound | concentration at 24 h [ng/g] |
| --- | --- |
| Oc1c(O)c(Cl)c(-c2cc(Cl)ccc2Cl)c(Cl)c1Cl [4,5-95, 2,2',3,5',6-pentachlorobiphenyl-4,5-diol] | 1.7 ± 0.8 |
| Oc1c(Cl)cc(Cl)c(-c2cc(Cl)ccc2Cl)c1Cl [3-103, 2,2',4,5',6-pentachlorobiphenyl-3-ol] | 0.6 ± 0.2 |

Same assay, conditions: male, CYP2A6-humanized (KI), mouse, whole blood, po, 1 mg/kg, MKI, male CYP2A6-humanized mice, single oral PCB 95 1.0 mg/kg, mean ± SD, read-out: Levels in blood

| Compound | concentration at 24 h [ng/g] |
| --- | --- |
| Oc1c(O)c(Cl)c(-c2cc(Cl)ccc2Cl)c(Cl)c1Cl [4,5-95, 2,2',3,5',6-pentachlorobiphenyl-4,5-diol] | 3.6 ± 1.3 |
| Oc1c(Cl)cc(Cl)c(-c2cc(Cl)ccc2Cl)c1Cl [3-103, 2,2',4,5',6-pentachlorobiphenyl-3-ol] | 0.4 ± 0.1 |

Same assay, conditions: male, Cyp2abfgs-null (KO), mouse, adipose, po, 1 mg/kg, MKO, male Cyp2abfgs-null mice, single oral PCB 95 1.0 mg/kg, mean ± SD, read-out: Levels in adipose

| Compound | concentration at 24 h [ng/g] |
| --- | --- |
| Oc1c(O)c(Cl)c(-c2cc(Cl)ccc2Cl)c(Cl)c1Cl [4,5-95, 2,2',3,5',6-pentachlorobiphenyl-4,5-diol] | 1.9 ± 0.8 |
| Oc1c(Cl)cc(Cl)c(-c2cc(Cl)ccc2Cl)c1Cl [3-103, 2,2',4,5',6-pentachlorobiphenyl-3-ol] | 1.5 ± 0.7 |

Same assay, conditions: male, Cyp2abfgs-null (KO), mouse, liver, po, 1 mg/kg, MKO, male Cyp2abfgs-null mice, single oral PCB 95 1.0 mg/kg, mean ± SD, read-out: Levels in liver

| Compound | concentration at 24 h [ng/g] |
| --- | --- |
| Oc1c(O)c(Cl)c(-c2cc(Cl)ccc2Cl)c(Cl)c1Cl [4,5-95, 2,2',3,5',6-pentachlorobiphenyl-4,5-diol] | 2.8 ± 1.6 |
| Oc1c(Cl)cc(Cl)c(-c2cc(Cl)ccc2Cl)c1Cl [3-103, 2,2',4,5',6-pentachlorobiphenyl-3-ol] | 1 ± 0.4 |

Same assay, conditions: male, Cyp2abfgs-null (KO), mouse, whole blood, po, 1 mg/kg, MKO, male Cyp2abfgs-null mice, single oral PCB 95 1.0 mg/kg, mean ± SD, read-out: Levels in blood

| Compound | concentration at 24 h [ng/g] |
| --- | --- |
| Oc1c(O)c(Cl)c(-c2cc(Cl)ccc2Cl)c(Cl)c1Cl [4,5-95, 2,2',3,5',6-pentachlorobiphenyl-4,5-diol] | 5.3 ± 3.8 |
| Oc1c(Cl)cc(Cl)c(-c2cc(Cl)ccc2Cl)c1Cl [3-103, 2,2',4,5',6-pentachlorobiphenyl-3-ol] | 0.5 ± 0.1 |

— PMC10445290, “Enantiomeric Fractions Reveal Differences in the Atropselective Disposition of 2,2′,3,5′,6-Pentachlorobiphenyl (PCB 95) in Wildtype, Cyp2abfgs-Null, and CYP2A6-Humanized Mice” (Chemical Research in Toxicology, 2023)
